Patent US20180215727A1, “LYSYL OXIDASE-LIKE 2 INHIBITORS AND USES THEREOF” (PharmAkea, Inc., priority 2015, published 2018)
Counter-ions that a name gives are not always drawn.

These molecules were tested against T1, human LOXL2 (Homo sapiens, UniProt Q9Y4K0) (assay: Human LOXL2 Amine Oxidase Activity Assay (Amplex Red fluorescence)). Conditions: concentrated conditioned media from CHO cells stably expressing human LOXL2, test compound incubated 2 h at 37° C., pH8, DAP substrate.
T1 construct: expressed in transfected cells; secreted protein in 10-20x concentrated conditioned media
T1 sequence (Q9Y4K0 26-774): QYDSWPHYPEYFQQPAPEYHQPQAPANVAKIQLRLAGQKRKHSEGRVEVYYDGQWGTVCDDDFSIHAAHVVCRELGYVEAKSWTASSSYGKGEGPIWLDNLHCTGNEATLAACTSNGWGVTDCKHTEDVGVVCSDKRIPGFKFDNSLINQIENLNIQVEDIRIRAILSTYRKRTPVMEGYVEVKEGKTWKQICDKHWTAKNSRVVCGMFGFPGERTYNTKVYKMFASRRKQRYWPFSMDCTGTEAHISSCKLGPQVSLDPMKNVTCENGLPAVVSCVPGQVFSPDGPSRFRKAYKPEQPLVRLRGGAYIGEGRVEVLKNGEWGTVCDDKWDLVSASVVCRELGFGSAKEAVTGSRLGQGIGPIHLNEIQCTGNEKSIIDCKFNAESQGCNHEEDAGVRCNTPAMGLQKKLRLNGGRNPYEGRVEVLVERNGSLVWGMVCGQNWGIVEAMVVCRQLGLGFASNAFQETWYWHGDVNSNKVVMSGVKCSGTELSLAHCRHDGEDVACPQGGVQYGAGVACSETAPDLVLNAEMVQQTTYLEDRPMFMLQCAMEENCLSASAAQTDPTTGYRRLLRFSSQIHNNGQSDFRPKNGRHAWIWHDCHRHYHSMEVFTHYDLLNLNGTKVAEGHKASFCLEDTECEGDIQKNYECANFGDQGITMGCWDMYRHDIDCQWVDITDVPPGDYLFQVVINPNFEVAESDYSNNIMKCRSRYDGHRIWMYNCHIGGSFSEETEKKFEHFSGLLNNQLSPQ
Format: biochemical
Method: Example B-1: Human LOXL2 Amine Oxidase Activity Assay
LOXL2 amine oxidase activity is evaluated by measuring Amplex Red fluorescence using 10-20× concentrated conditioned media from CHO cells stably expressing human LOXL2. To assay for amine oxidase activity, 10 μL of the concentrated conditioned media is incubated with 2 μL of test compound in DMSO and 73 μL Assay Buffer (50 mM Borate Buffer, pH8) for 2 h at 37° C. After the 2 h incubation, 5 μl of 10 mM 1,5-Diaminopentane (DAP) diluted in Assay Buffer and 10 μl of Amplex Red Mix (8.5 μl Assay Buffer+0.5 μl of 10 mM Amplex Red+1 μl of 500 U/ml Horseradish Peroxidase) are added and the plate mixed and immediately placed on the FlexStaion for fluorescence measurements. Fluorescence is read in kinetic mode every 2 min for 1 hour at excitation=544 and emission=590. The amine oxidase activity is calculated from the slope of the linear portion of the curve.

Row | Compound | IC50 [µM]
1 | Cn1cc(-c2ccc3c(=O)cc(CN)oc3c2)nn1 [Compound 1-39, 2-(Aminomethyl)-7-(1-methyl-1H-1,2,3-triazol-4-yl)-4H-chromen-4-one hydrochloride] | < 0.3
2 | NCc1cc(=O)c2ccc(N3CCN(c4ccccc4)CC3)cc2o1 [Compound 1-40, 2-(Aminomethyl)-7-(4-phenylpiperazin-1-yl)-4H-chromen-4-one hydrochloride] | < 0.3
3 | NCc1cc(=O)c2ccc(N3CCN(C(=O)c4ccccc4)CC3)cc2o1 [Compound 1-41, 2-(Aminomethyl)-7-(4-benzoylpiperazin-1-yl)-4H-chromen-4-one hydrochloride] | < 0.3
4 | NCc1cc(=O)c2ccc(N3CCCc4ccccc43)cc2o1 [Compound 1-42, 2-(Aminomethyl)-7-(3,4-dihydroquinolin-1(2H)-yl)-4H-chromen-4-one hydrochloride] | < 0.3
5 | NCc1cc(=O)c2ccc(O)cc2o1 [Compound 1-43, 2-(Aminomethyl)-7-hydroxy-4H-chromen-4-one hydrochloride] | 0.3 to 1
6 | CC(C)COc1ccc2c(=O)cc(CN)oc2c1 [Compound 1-44, 2-(Aminomethyl)-7-isobutoxy-4H-chromen-4-one hydrochloride] | < 0.3
7 | C#CCOc1ccc2c(=O)cc(CN)oc2c1 [Compound 1-45, 2-(aminomethyl)-7-(prop-2-yn-1-yloxy)-4H-chromen-4-one hydrochloride] | < 0.3
8 | NCc1cc(=O)c2ccc(OCCOc3ccccc3)cc2o1 [Compound 1-46, 2-(Aminomethyl)-7-(2-phenoxyethoxy)-4H-chromen-4-one hydrochloride] | < 0.3
9 | NCc1cc(=O)c2ccc(OCc3cn(-c4ccccc4)nn3)cc2o1 [Compound 1-47, 2-(Aminomethyl)-7-((1-phenyl-1H-1,2,3-triazol-4-yl)methoxy)-4H-chromen-4-one hydrochloride] | < 0.3
10 | NCc1cc(=O)c2ccc(OCc3cccc(C(=O)Nc4ccccc4)c3)cc2o1 [Compound 1-48, 3-(((2-(Aminomethyl)-4-oxo-4H-chromen-7-yl)oxy)methyl)-N-phenylbenzamide hydrochloride] | < 0.3
11 | NCc1cc(=O)c2ccc(Nc3cccc(C(=O)Nc4ccccc4)c3)cc2o1 [Compound 1-49, 3-((2-(Aminomethyl)-4-oxo-4H-chromen-7-yl)amino)-N-phenylbenzamide hydrochloride] | < 0.3
12 | NCc1cc(=O)c2cccc(Br)c2o1 [Compound 1-50, 2-(Aminomethyl)-8-bromo-4H-chromen-4-one hydrochloride] | 0.3 to 1
13 | C#Cc1cccc2c(=O)cc(CN)oc12 [Compound 1-51, 2-(Aminomethyl)-8-ethynyl-4H-chromen-4-one hydrochloride] | > 1
14 | NCc1cc(=O)c2cccc(O)c2o1 [Compound 1-52, 2-(Aminomethyl)-8-hydroxy-4H-chromen-4-one hydrochloride] | 0.3 to 1
15 | C#CCOc1cccc2c(=O)cc(CN)oc12 [Compound 1-53, 2-(Aminomethyl)-8-(prop-2-yn-1-yloxy)-4H-chromen-4-one hydrochloride] | 0.3 to 1
16 | NCc1cc(=O)c2cccc(OCc3ccccc3)c2o1 [Compound 1-54, 2-(Aminomethyl)-8-(benzyloxy)-4H-chromen-4-one hydrochloride] | 0.3 to 1

Row | Compound | IC50 [µM]
17 | NCc1cc(=O)c2cccc(OCCc3ccccc3)c2o1 [Compound 1-55, 2-(Aminomethyl)-8-phenethoxy-4H-chromen-4-one hydrochloride] | 0.3 to 1
18 | NCc1cc(=O)c2cccc(OCCOc3ccccc3)c2o1 [Compound 1-56, 2-(Aminomethyl)-8-(2-phenoxyethoxy)-4H-chromen-4-one hydrochloride] | > 1
19 | NCc1cc(=O)c2cccc(OCC(=O)Nc3ccccc3)c2o1 [Compound 1-57, 2-((2-(Aminomethyl)-4-oxo-4H-chromen-8-yl)oxy)-N-phenylacetamide hydrochloride] | 0.3 to 1
20 | NCc1cc(=O)c2cccc(OCc3cccc(C(=O)Nc4ccccc4)c3)c2o1 [Compound 1-58, 3-(((2-(Aminomethyl)-4-oxo-4H-chromen-8-yl)oxy)methyl)-N-phenylbenzamide hydrochloride] | > 1
21 | NCc1cc(=O)c2cc(C(=O)NCCO)ccc2o1 [Compound 1-59, 2-(Aminomethyl)-N-(2-hydroxyethyl)-4-oxo-4H-chromene-6-carboxamide hydrochloride] | 0.3 to 1
22 | NCc1cc(=O)c2cc(C(=O)N3C[C@H](O)[C@@H](F)C3)ccc2o1 [Compound 1-60, 2-(Aminomethyl)-6-((3S,4S)-3-fluoro-4-hydroxypyrrolidine-1-carbonyl)-4H-chromen-4-one hydrochloride] | 0.3 to 1
23 | NCc1cc(=O)c2cc(C(=O)N3C[C@@H](O)[C@H](F)C3)ccc2o1 [Compound 1-61, 2-(Aminomethyl)-6-((3R,4R)-3-fluoro-4-hydroxypyrrolidine-1-carbonyl)-4H-chromen-4-one hydrochloride] | 0.3 to 1
24 | NCc1cc(=O)c2ccc(OCc3ccc(C(F)(F)F)cc3)cc2o1 [Compound 1-62, 2-(Aminomethyl)-7-((4-(trifluoromethyl)benzyl)oxy)-4H-chromen-4-one hydrochloride] | < 0.3
25 | NCc1cc(=O)c2ccc(OCC#Cc3ccccc3)cc2o1 [Compound 1-63, 2-(Aminomethyl)-7-((3-phenylprop-2-yn-1-yl)oxy)-4H-chromen-4-one hydrochloride] | < 0.3
26 | COc1ccc(COc2ccc3c(=O)cc(CN)oc3c2)cc1 [Compound 1-64, 2-(Aminomethyl)-7-((4-methoxybenzyl)oxy)-4H-chromen-4-one] | < 0.3
27 | NCc1cc(=O)c2ccc(OCc3ccc4ccccc4n3)cc2o1 [Compound 1-65, 2-(Aminomethyl)-7-(quinolin-2-ylmethoxy)-4H-chromen-4-one hydrochloride] | < 0.3
28 | NCc1cc(=O)c2ccc(OCc3cc4ccccc4s3)cc2o1 [Compound 1-66, 2-(Aminomethyl)-7-(benzo[b]thiophen-2-ylmethoxy)-4H-chromen-4-one hydrochloride] | < 0.3
29 | NCc1cc(=O)c2ccc(Oc3cccc(C(F)(F)F)c3)cc2o1 [Compound 1-67, 2-(Aminomethyl)-7-(3-(trifluoromethyl)phenoxy)-4H-chromen-4-one hydrochloride] | < 0.3
30 | NCc1cc(=O)c2ccc(Oc3ccccc3)cc2o1 [Compound 1-68, 2-(Aminomethyl)-7-phenoxy-4H-chromen-4-one hydrochloride] | < 0.3
31 | COc1cc2c(=O)cc(CN)oc2cc1OCc1ccccc1 [Compound 1-69, 2-(Aminomethyl)-7-(benzyloxy)-6-methoxy-4H-chromen-4-one hydrochloride] | < 0.3
32 | NCc1cc(=O)c2ccc(Nc3cnn(-c4ccccc4)c3)cc2o1 [Compound 1-70, 2-(Aminomethyl)-7-((1-phenyl-1H-pyrazol-4-yl)amino)-4H-chromen-4-one hydrochloride] | < 0.3
